From patent publication US8063095B2, “IAP BIR domain binding compounds” (Pharmascience Inc., priority 2005, dated 2011)

Legend:
[1] = test system: MDA-MB-231 (breast) cancer cells; experiment: Cell viability (MTT) assay, MDA cells; details: MTT based assay
Experimental: (§1) MDA-MD-231 (breast) and SKOV-3 (ovarian) cancer cells were cultured in RPMI1640 media supplemented with 10% FBS and 100 units/mL of Penicillin and Steptomycin.
(§2) Viability assays were done on a number of cells including MDA-MB-231, SKOV-3, H460, PC3, HCT-116, and SW480 cells. Cells were seeded in 96 well plates at a respective density of 5000 and 2000 cells per well and incubated at 37° C. in presence of 5% CO2 for 24 hours. Selected compounds were diluted into the media at various concentration ranging from 0.01 uM up to 100 uM. Diluted compounds were added onto the MDA-MB-231 cells. For the MDA-MB-231 SKOV3, H460, PC3, HCT-116, and SW480 cells, the compounds were added either alone or in presence of 1-3 ng/ml of TRAIL. After 72 hours cellular viability was evaluated by MTT based assays.

[2] = test system: SKOV-3 (ovarian) cancer cells; experiment: Cell viability (MTT) assay, SKOV3 cells; details: 72 hours, MTT based assay; compounds added either alone or in presence of 1-3 ng/ml of TRAIL
Experimental: as §1, §2

Row | Structure (SMILES) | EC50 ([1]; Homo sapiens, MDA-MB-231, 72 h) [µM] | EC50 [2] [µM] | further results
1 | CN[C@@H](C)C(=O)N[C@@H](COCC#CC#CCOC[C@H](NC(=O)[C@H](C)NC)C(=O)N1CCC[C@H]1CN(CCc1ccccc1)C(=O)C(F)(F)F)C(=O)N1CCC[C@H]1CN(CCc1ccccc1)C(=O)C(F)(F)F [Compound 24] | < 0.1 |  | 
2 | CN[C@@H](C)C(=O)N[C@@H](CCC(=O)NCCNC(=O)CC[C@H](NC(=O)[C@H](C)NC)C(=O)N1CCC[C@H]1CN(CCc1ccccc1)C(=O)C(F)(F)F)C(=O)N1CCC[C@H]1CN(CCc1ccccc1)C(=O)C(F)(F)F [Compound 30] |  |  | EC50 ([1]; 72 hours): < 0.1 µM
3 | CN[C@@H](C)C(=O)N[C@H](C(=O)N1CCC[C@H]1CN(CCc1ccccc1)C(=O)CNCc1ccccc1)[C@@H](C)OCC#CC#CCO[C@H](C)[C@H](NC(=O)[C@H](C)NC)C(=O)N1CCC[C@H]1CN(CCc1ccccc1)C(=O)CNCc1ccccc1 [Compound 10] | < 0.1 |  | 
4 | CN[C@@H](C)C(=O)N[C@@H](CCC(=O)NCCNC(=O)CC[C@H](NC(=O)[C@H](C)NC)C(=O)N1CCC[C@H]1CN(CCc1ccccc1)C(=O)C(F)(F)F)C(=O)N1CCC[C@H]1CN(CCc1ccccc1)C(=O)C(F)(F)F [Compound 19] |  |  | EC50 ([1]; 72 hours): < 1 µM
5 | CN[C@@H](C)C(=O)N[C@H](C(=O)N1CCC[C@H]1CN(CCc1ccccc1)C(=O)c1ccc(OC)cc1)[C@@H](C)OCC#CC#CCO[C@H](C)[C@H](NC(=O)[C@H](C)NC)C(=O)N1CCC[C@H]1CN(CCc1ccccc1)C(=O)c1ccc(OC)cc1 [Compound 9] | < 0.1 |  | 
6 | CN[C@@H](C)C(=O)NC(CCCNC(=O)c1ccc(C(=O)NCCC[C@H](NC(=O)[C@H](C)NC)C(=O)N2CCC[C@H]2CN(CCc2ccccc2)C(=O)C(F)(F)F)cc1)C(=O)N1CCC[C@H]1CN(CCc1ccccc1)C(=O)C(F)(F)F (stereo partly drawn) [Compound 39] |  | < 1 | 
7 | CN[C@@H](C)C(=O)N[C@@H](CCCNC(=O)CCCC(=O)NCCC[C@H](NC(=O)[C@H](C)NC)C(=O)N1CCC[C@H]1CN(CCc1ccccc1)S(=O)(=O)c1ccc(F)cc1)C(=O)N1CCC[C@H]1CN(CCc1ccccc1)S(=O)(=O)c1ccc(F)cc1 [Compound 43] |  | < 1 | 
8 | CN[C@@H](C)C(=O)N[C@H](C(=O)N1CCC[C@H]1CN(CCc1ccccc1)C(=O)C(F)(F)F)[C@@H](C)OCCCCCCO[C@H](C)[C@H](NC(=O)[C@H](C)NC)C(=O)N1CCC[C@H]1CN(CCc1ccccc1)C(=O)C(F)(F)F [Compound 36] |  | < 0.1 | 
9 | CN[C@@H](C)C(=O)N[C@H](C(=O)N1CCC[C@H]1CN(CCc1ccccc1)C(=O)CF)[C@@H](C)OCC#CC#CCO[C@H](C)[C@H](NC(=O)[C@H](C)NC)C(=O)N1CCC[C@H]1CN(CCc1ccccc1)C(=O)CF [Compound 29] |  |  | EC50 ([1]; Homo sapiens, MDA-MB-231, 72 hours): < 0.1 µM
10 | CN[C@@H](C)C(=O)N[C@@H](CCC(=O)NCCNC(=O)CC[C@H](NC(=O)[C@H](C)NC)C(=O)N1CCC[C@H]1CN(CCc1ccccc1)C(=O)C(F)(F)F)C(=O)N1CCC[C@H]1CN(CCc1ccccc1)C(=O)C(F)(F)F [Compound 22] |  |  | EC50 ([1]; 72 hours): < 0.1 µM
11 | CN[C@@H](C)C(=O)N[C@@H](CCC(=O)NCCNC(=O)CC[C@H](NC(=O)[C@H](C)NC)C(=O)N1CCC[C@H]1CN(CCc1ccccc1)C(=O)C(F)(F)F)C(=O)N1CCC[C@H]1CN(CCc1ccccc1)C(=O)C(F)(F)F [Compound 18] |  |  | EC50 ([1]; 72 hours): < 1 µM
12 | CN[C@@H](C)C(=O)N[C@H](C(=O)N1CCC[C@H]1CN(CCc1ccccc1)C(=O)C(F)F)[C@@H](C)OCC#CC#CCO[C@H](C)[C@H](NC(=O)[C@H](C)NC)C(=O)N1CCC[C@H]1CN(CCc1ccccc1)C(=O)C(F)F [Compound 28] | < 0.1 |  | 
13 | CN[C@@H](C)C(=O)N[C@@H](CC(=O)NCCNC(=O)C[C@H](NC(=O)[C@H](C)NC)C(=O)N1CCC[C@H]1CN(CCc1ccccc1)C(=O)C(F)(F)F)C(=O)N1CCC[C@H]1CN(CCc1ccccc1)C(=O)C(F)(F)F [Compound 35] | < 1 |  | 
14 | CN[C@@H](C)C(=O)N[C@@H](CCC(=O)NCc1ccc(CNC(=O)CC[C@H](NC(=O)[C@H](C)NC)C(=O)N2CCC[C@H]2CN(CCc2ccccc2)C(=O)C(F)(F)F)cc1)C(=O)N1CCC[C@H]1CN(CCc1ccccc1)C(=O)C(F)(F)F [Compound 17] | < 1 |  | 
15 | CNCC(=O)N(CCc1ccccc1)C[C@@H]1CCCN1C(=O)[C@@H](NC(=O)[C@H](C)NC)[C@@H](C)OCC#CC#CCO[C@H](C)[C@H](NC(=O)[C@H](C)NC)C(=O)N1CCC[C@H]1CN(CCc1ccccc1)C(=O)CNC [Compound 27] | < 1 |  | 
16 | CN[C@@H](C)C(=O)N[C@H](C(=O)N1CCC[C@H]1C(=O)N[C@@H]1CCCc2ccccc21)[C@@H](C)OCCCCCCO[C@H](C)[C@H](NC(=O)[C@H](C)NC)C(=O)N1CCC[C@H]1C(=O)N[C@@H]1CCCc2ccccc21 [Compound 25] | < 0.1 |  | 
17 | CN[C@@H](C)C(=O)N[C@H](C(=O)N1CCC[C@H]1CN(CCc1ccccc1)S(C)(=O)=O)[C@@H](C)OCCCCCCO[C@H](C)[C@H](NC(=O)[C@H](C)NC)C(=O)N1CCC[C@H]1CN(CCc1ccccc1)S(C)(=O)=O [Compound 37] |  | < 0.1 | 

Row | Structure (SMILES) | EC50 ([1]; Homo sapiens, MDA-MB-231, 72 h) [µM] | EC50 [2] [µM] | further results
18 | CN[C@@H](C)C(=O)N[C@@H](CCCCNC(=O)NCCCC[C@H](NC(=O)[C@H](C)NC)C(=O)N1CCC[C@H]1CN(CCc1ccccc1)C(=O)C(F)(F)F)C(=O)N1CCC[C@H]1CN(CCc1ccccc1)C(=O)C(F)(F)F [Compound 47] |  | < 1 | 
19 | CN[C@@H](C)C(=O)N[C@H](C(=O)N1CCC[C@H]1CN(CCc1ccccc1)C(C)=O)[C@@H](C)OCC#CC#CCO[C@H](C)[C@H](NC(=O)[C@H](C)NC)C(=O)N1CCC[C@H]1CN(CCc1ccccc1)C(C)=O [Compound 5] | < 0.1 |  | 
20 | CN[C@@H](C)C(=O)NC(CCCNC(=O)c1ccc(C(=O)NCCC[C@H](NC(=O)[C@H](C)NC)C(=O)N2CCC[C@H]2C(=O)N[C@@H]2CCCc3ccccc32)cc1)C(=O)N1CCC[C@H]1CN(CCc1ccccc1)C(=O)C(F)(F)F (stereo partly drawn) [Compound 38] |  | < 0.1 | 
21 | CN[C@@H](C)C(=O)N[C@H](C(=O)N1CCC[C@H]1CN(CCc1ccccc1)C(=O)C(C)C)[C@@H](C)OCC#CC#CCO[C@H](C)[C@H](NC(=O)[C@H](C)NC)C(=O)N1CCC[C@H]1CN(CCc1ccccc1)C(=O)C(C)C [Compound 26] | < 0.1 |  | 
22 | CN[C@@H](C)C(=O)N[C@@H](CCCNC(=O)NCCC[C@H](NC(=O)[C@H](C)NC)C(=O)N1CCC[C@H]1C(=O)N[C@@H]1CCCc2ccccc21)C(=O)N1CCC[C@H]1C(=O)N[C@@H]1CCCc2ccccc21 [Compound 16] | < 0.1 |  | 
23 | CN[C@@H](C)C(=O)N[C@@H](CC(=O)NCCNC(=O)C[C@H](NC(=O)[C@H](C)NC)C(=O)N1CCC[C@H]1CN(CCc1ccccc1)C(=O)C(F)(F)F)C(=O)N1CCC[C@H]1CN(CCc1ccccc1)C(=O)C(F)(F)F [Compound 32] |  | > 1 | 
24 | CN[C@@H](C)C(=O)N[C@@H](CCC(=O)NCCNC(=O)CC[C@H](NC(=O)[C@H](C)NC)C(=O)N1CCC[C@H]1CN(CCc1ccccc1)C(=O)C(F)(F)F)C(=O)N1CCC[C@H]1CN(CCc1ccccc1)C(=O)C(F)(F)F [Compound 20] |  |  | EC50 ([1]; 72 hours): < 1 µM
25 | CN[C@@H](C)C(=O)NC(CCCNC(=O)CCC(=O)NCCC[C@H](NC(=O)[C@H](C)NC)C(=O)N1CCC[C@H]1CN(CCc1ccccc1)S(=O)(=O)c1ccc(F)cc1)C(=O)N1CCC[C@H]1CN(CCc1ccccc1)S(=O)(=O)c1ccc(F)cc1 (stereo partly drawn) [Compound 40] |  | < 1 | 
26 | CN[C@@H](C)C(=O)N[C@@H](CCCNC(=O)c1ccc(C(=O)NCCC[C@H](NC(=O)[C@H](C)NC)C(=O)N2CCC[C@H]2CN(CCc2ccccc2)S(=O)(=O)c2ccc(F)cc2)cc1)C(=O)N1CCC[C@H]1CN(CCc1ccccc1)S(=O)(=O)c1ccc(F)cc1 [Compound 45] |  | < 1 | 
27 | CN[C@@H](C)C(=O)NC(CCCNC(=O)c1ccc(C(=O)NCCC[C@H](NC(=O)[C@H](C)NC)C(=O)N2CCC[C@H]2C(=O)N[C@@H]2CCCc3ccccc32)cc1)C(=O)N1CCC[C@H]1C(=O)N[C@@H]1CCCc2ccccc21 (stereo partly drawn) [Compound 15] | < 0.1 |  | 
28 | CN[C@@H](C)C(=O)N[C@@H](CCCNC(=O)CCCCC(=O)NCCC[C@H](NC(=O)[C@H](C)NC)C(=O)N1CCC[C@H]1CN(CCc1ccccc1)S(=O)(=O)c1ccc(F)cc1)C(=O)N1CCC[C@H]1CN(CCc1ccccc1)S(=O)(=O)c1ccc(F)cc1 [Compound 44] |  | < 1 | 
29 | CN[C@@H](C)C(=O)N[C@@H](CCCNC(=O)C(=O)NCCC[C@H](NC(=O)[C@H](C)NC)C(=O)N1CCC[C@H]1CN(CCc1ccccc1)S(=O)(=O)c1ccc(F)cc1)C(=O)N1CCC[C@H]1CN(CCc1ccccc1)S(=O)(=O)c1ccc(F)cc1 [Compound 41] |  | < 1 | 
30 | CN[C@@H](C)C(=O)N[C@@H](CCC(=O)NCCNC(=O)CC[C@H](NC(=O)[C@H](C)NC)C(=O)N1CCC[C@H]1CN(CCc1ccccc1)C(=O)C(F)(F)F)C(=O)N1CCC[C@H]1CN(CCc1ccccc1)C(=O)C(F)(F)F [Compound 31] |  |  | EC50 ([1]; 72 hours): < 0.1 µM
31 | CN[C@@H](C)C(=O)N[C@@H](CCCCNC(=O)C(=O)NCCCC[C@H](NC(=O)[C@H](C)NC)C(=O)N1CCC[C@H]1CN(CCc1ccccc1)C(=O)C(F)(F)F)C(=O)N1CCC[C@H]1CN(CCc1ccccc1)C(=O)C(F)(F)F [Compound 46] |  | < 0.1 | 
32 | CN[C@@H](C)C(=O)N[C@@H](CCCNC(=O)NCCC[C@H](NC(=O)[C@H](C)NC)C(=O)N1CCC[C@H]1CN(CCc1ccccc1)S(=O)(=O)c1ccc(F)cc1)C(=O)N1CCC[C@H]1CN(CCc1ccccc1)S(=O)(=O)c1ccc(F)cc1 [Compound 42] |  | > 1 | 
33 | CN[C@@H](C)C(=O)N[C@@H](CCC(=O)NCCNC(=O)CC[C@H](NC(=O)[C@H](C)NC)C(=O)N1CCC[C@H]1CN(CCc1ccccc1)C(=O)C(F)(F)F)C(=O)N1CCC[C@H]1CN(CCc1ccccc1)C(=O)C(F)(F)F [Compound 21] |  |  | EC50 ([1]; 72 hours): < 1 µM
